Where two headings read alike, the source gives them in different places.
Columns and labels:
[1] = Pharmacokinetic analysis following oral administration to beagle dogs; type: in vivo; settings: 1 mg/kg
Procedure: (§1) Pharmacokinetic analysis was performed on various test compounds following intravenous or oral administration to beagle dogs.
(§2) For pharmacokinetic analysis of intravenously administered compounds, the test compounds were formulated in 5% Ethanol, 55% PEG 300, and 40% water at 0.1 mg/mL for IV infusion. For pharmacokinetic analysis of orally administered compounds, the test compounds were formulated as an aqueous suspension in 0.1% Tween 20, 0.5% HPMC LV 100 in Di Water at 1 mg/kg.
(§3) Each dosing group consisted of 3 male, non-naïve purebred beagle dogs. At dosing, the animals weighed between 10 to 13 kg. The animals were fasted overnight prior to dose administration and up to 4 hr after dosing. For studies of intravenous administration, the test article was administered to the animals by intravenous infusion over 30 min. The rate of infusion was adjusted according to the body weight of each animal to deliver a dose of 0.5 mg/kg. For studies of oral administration, the test article was administered according to the body weight of each animal to deliver a dose of 1 mg/kg.
For pharmacokinetic analysis of orally administered compounds, serial venous blood samples (approximately 0.3 mL each) were taken from each animal at time points of 0, 0.25, 0.50, 1.0, 2.0, 4.0, 6.0, 8.0, 12.0 and 24.0 hours after dosing. Blood samples were collected, prepared and analyzed in a similar way to the intravenous studies described above. Non-compartmental pharmacokinetic analysis was performed on the plasma concentration-time data. The resulting data are shown in the last three columns of Table 4. In Table 4, F (%) refers to oral bioavailability. Cmax refers to the peak plasma concentration of the compound after administration. AUC refers to area under the curve and is a measure of total plasma exposure of the indicated compound.

OCT2 = OCT2 (Homo sapiens (Human), UniProt O15244); assay: OCT2 inhibition assay (14C-TEA uptake, OCT2-transfected MDCKII cells); type: cell-based
Procedure: On assay day, cells were trypsinized and resuspended in Krebs-Henseleit Buffer (KHB), pH 7.4 at […]. Cells were preincubated for 15 min in assay plate before addition of test compound or substrate. Test compounds were serially diluted in DMSO and then spiked (2 μL) into in 0.4 mL KHB buffer containing wild-type or OCT2-transfected cells and incubated for 10 minutes. Assay was initiated with the addition of 0.1 mL of 100 μM ^14C-TEA in KHB buffer (20 μM final concentration after mixing). The concentration of TEA is based on the Km. After 10 minutes of incubation, the assay mixture was quenched with addition of 0.5 mL of ice-cold 1×PBS buffer. Samples were then centrifuged at 1000 rpm for 5 min and supernatants were removed. Wash steps were repeated four times with ice-cold PBS. Finally, the cell pellets were lysed with 0.2N NaOH and let sit at room temperature for at least 30 min to ensure complete lysis. Samples were then counted on liquid scintillation counter and dpm counts were used to perform the following calculations.

[2] = Pharmacokinetic analysis following intravenous administration to beagle dogs; type: in vivo; settings: male, dog, 0.5 mg/kg; for Vd: read-out: Vss
Procedure: as §1, §2, §3
For pharmacokinetic analysis of intravenously administered compounds, serial venous blood samples (approximately 1 mL each) were taken from each animal at 0, 0.250, 0.483, 0.583, 0.750, 1.00, 1.50, 2.00, 4.00, 8.00, 12.0, and 24.0 hours after dosing. The blood samples were collected into Vacutainer™ tubes containing EDTA-K2 as the anti-coagulant and were immediately placed on wet ice pending centrifugation for plasma. An LC/MS/MS method was used to measure the concentration of the test compound in plasma. An aliquot of 100 μL of each plasma sample was added to a clean 96 well plate, and 400 μL of cold acetonitrile/internal standard solution (ACN)/(ISTD) was added. After protein precipitation, an aliquot of 110 μL of the supernatant was transferred to a clean 96-well plate and diluted with 300 μL of water. An aliquot of 25 μL of the above solution was injected into a TSQ Quantum Ultra LC/MS/MS system utilizing a Hypersil Gold C18 HPLC column (50×3.0 mm, 5 μm; Thermo-Hypersil Part #25105-053030). An Agilent 1200 series binary pump (P/N G1312A Bin Pump) was used for elution and separation, and an HTS Pal autosampler (LEAP Technologies, Carrboro, N.C.) was used for sample injection. A TSQ Quantum Ultra triple quadrupole mass spectrometer was utilized in selective reaction monitoring mode (Thermo Finnigan, San Jose, Calif.). Liquid chromatography was performed using two mobile phases: mobile phase A contained 1% acetonitrile in 2.5 mM ammonium formate aqueous solution with pH of 3.0, and mobile phase B contained 90% acetonitrile in 10 mM ammonium formate with pH of 4.6. Non-compartmental pharmacokinetic analysis was performed on the plasma concentration-time data. The resulting data are shown in the first three columns of Table 4. In Table 4, CL refers to clearance, which characterizes the rate at which drug is removed from plasma. The lower the clearance of a drug is, the longer the elimination half-life is in the body. Vss refers to the steady state volume of distribution and indicates how well a drug is distributed into the tissues. The larger the Vss is, the longer the elimination half-life is in the body. MRT refers to mean residence time, which is a measure of the average time molecules exist in the body.

[3] = Cytotoxicity (CC50) in MT-4 cells, mock-infected, CellTiter-Glo; settings: human
PXR = PXR (Homo sapiens (Human), UniProt O75469); assay: Human PXR activation assay (luciferase reporter gene assay, DPX2 cells); type: cell-based; settings: human
Procedure: A stably transformed tumor cell line (DPX2) was plated on 96-well microtiter plates. DPX2 cells harbor the human PXR gene (NR112) and a luciferase reporter gene linked to two promoters identified in the human CYP3A4 gene, namely XREM and PXRE. […] The number of viable cells was determined and the reporter gene activity was assessed. Positive control: […]

[4] = beagle dogs, oral, aqueous suspension
[5] = male, dog, plasma, beagle dogs, oral, aqueous suspension, read-out: AUC (μM*h) aqueous suspension
[6] = male, dog, plasma, beagle dogs, oral, aqueous suspension, read-out: Cmax (μM) aqueous suspension
[7] = OCT2 mediated uptake of 14C-TEA (20 μM), MDCKII cells, read-out: IC50
[8] = plasma, beagle dogs, IV infusion over 30 min, read-out: CL (converted)
[9] = plasma, beagle dogs, IV infusion over 30 min, read-out: MRT
[10] = plasma, beagle dogs, IV infusion over 30 min
[11] = 15 μM, relative to maximum fold induction by 10 or 20 μM rifampicin, DPX2 cells, 24 hours, read-out: % Emax at 15 μM

Chain of PXR (O75469 whole entry): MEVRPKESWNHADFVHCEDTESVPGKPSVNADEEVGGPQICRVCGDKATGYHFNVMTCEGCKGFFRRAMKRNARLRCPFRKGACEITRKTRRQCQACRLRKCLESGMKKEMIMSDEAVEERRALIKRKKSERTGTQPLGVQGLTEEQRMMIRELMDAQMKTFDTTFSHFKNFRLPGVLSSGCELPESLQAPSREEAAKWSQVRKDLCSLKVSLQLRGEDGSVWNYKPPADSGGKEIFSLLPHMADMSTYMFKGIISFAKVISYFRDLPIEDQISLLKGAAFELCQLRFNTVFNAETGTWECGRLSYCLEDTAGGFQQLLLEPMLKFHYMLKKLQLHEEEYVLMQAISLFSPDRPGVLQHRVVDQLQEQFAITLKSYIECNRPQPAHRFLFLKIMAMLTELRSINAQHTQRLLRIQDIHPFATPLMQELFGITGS
Chain of OCT2 (O15244 whole entry): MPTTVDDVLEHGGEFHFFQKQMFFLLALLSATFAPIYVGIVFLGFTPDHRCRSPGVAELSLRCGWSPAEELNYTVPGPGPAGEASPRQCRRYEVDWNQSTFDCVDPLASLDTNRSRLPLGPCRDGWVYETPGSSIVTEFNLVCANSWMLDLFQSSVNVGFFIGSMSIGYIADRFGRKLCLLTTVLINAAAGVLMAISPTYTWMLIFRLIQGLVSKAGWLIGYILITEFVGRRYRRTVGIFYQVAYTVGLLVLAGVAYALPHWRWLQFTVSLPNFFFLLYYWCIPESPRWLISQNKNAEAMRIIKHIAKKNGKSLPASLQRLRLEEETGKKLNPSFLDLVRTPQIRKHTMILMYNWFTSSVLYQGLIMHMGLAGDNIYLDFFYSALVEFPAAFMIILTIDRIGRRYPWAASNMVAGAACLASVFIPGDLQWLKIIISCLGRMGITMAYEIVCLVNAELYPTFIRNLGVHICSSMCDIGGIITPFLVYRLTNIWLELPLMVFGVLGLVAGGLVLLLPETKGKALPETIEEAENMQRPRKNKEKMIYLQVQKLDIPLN

SMILES | F (%) aqueous suspension [1, 4] [%] | AUC [1, 5] [µM·h] | Cmax [1, 6] [µM] | IC50 (OCT2; [7]) [µM] | clearance [2, 8] [mL/min/kg] | MRT [2, 9] [h] | Vd [2, 10] [L/kg] | CC50 at 5 days ([3]; MT-4 cells, mock-infected, CC50 nM in MT-4, MT-4 cells, 5 days incubation) [nM] | Emax at 24 h, 15 µM (PXR; [11]) [%] | AUC ([1]; male, beagle, dog, in vivo, po) [µM·h] | Cmax ([1]; male, beagle, dog, in vivo, po) [µM] | F (%) aqueous suspension ([1]; male, beagle, dog, in vivo, po) [%] | MRT ([2]; beagle, in vivo, iv) [h] | clearance ([2]; beagle, in vivo, iv) [mL/min/kg] | CC50 at 5 days ([3]; CC50 nM in MT-4) [nM] | Emax at 24 h, 15 µM (PXR) [%] | IC50 (OCT2) [µM] | Vd ([2]; in vivo, beagle dogs, IV infusion over 30 min) [L/kg]
O=C(NCc1c(F)cc(F)cc1F)c1cn2c(c(O)c1=O)C(=O)N1[C@H]3CC[C@H](C3)O[C@@H]1C2 [Compound 42, (2R,5S,13aR)-8-hydroxy-7,9-dioxo-N-(2,4,6-trifluorobenzyl)-2,3,4,5,7,9,13,13a-octahydro-2,5-methanopyrido[1′,2′:4,5]pyrazino[2,1-b][1,3]oxazepine-10-carboxamide] | 28.0 | 28.6 | 4.5 | 0.487 | 0.333 | 7.1 | 0.15 | 3540 | 21 |  |  |  |  |  |  |  |  | 
O=C(NCc1ccc(F)cc1F)c1cn2c(c(O)c1=O)C(=O)N1[C@H]3CC[C@H](C3)O[C@@H]1C2 [Compound 2, (2R,5S,13aR)-N-(2,4-difluorobenzyl)-8-hydroxy-7,9-dioxo-2,3,4,5,7,9,13,13a-octahydro-2,5-methanopyrido[1′,2′:4,5]pyrazino[2,1-b][1,3]oxazepine-10-carboxamide] |  |  |  | 0.24 |  |  | 0.2 |  |  | 66.1 | 7.8 | 40.7 | 6.5 | 0.5 | 3110 | 4.5 |  | 
O=C(NCc1c(F)cc(F)cc1F)c1cn2c(c(O)c1=O)C(=O)N1[C@H]3CC[C@H](C3)[C@H]1C2 [Compound 55, (1R,4S,12aS)-7-hydroxy-6,8-dioxo-N-(2,4,6-trifluorobenzyl)-1,2,3,4,6,8,12,12a-octahydro-1,4-methanodipyrido[1,2-a:1′,2′-d]pyrazine-9-carboxamide] |  |  |  |  |  |  | 0.24 |  |  |  |  |  | 4.2 | 0.967 | 11100 | 24 | 0.476 | 
C[C@@H](NC(=O)c1cn2c(c(O)c1=O)C(=O)N1[C@H]3CC[C@H](C3)[C@@H]1C2)c1c(F)cc(F)cc1F [Compound 77, (1R,4S,12aR)-7-hydroxy-6,8-dioxo-N—((R)-1-(2,4,6-trifluorophenyl)ethyl)-1,2,3,4,6,8,12,12a-octahydro-1,4-methanodipyrido[1,2-a:1′,2′-d]pyrazine-9-carboxamide] |  |  |  |  |  |  | 0.64 |  |  |  |  |  | 2.2 | 5 | 10100 | 11 | 3.83 | 
O=C(NCc1c(F)cc(F)cc1F)c1cn2c(c(O)c1=O)C(=O)N1[C@@H](C2)[C@H]2C[C@@H]1C(F)(F)C2 [Compound 98, (1S,4R,12aR)-3,3-difluoro-7-hydroxy-6,8-dioxo-N-(2,4,6-trifluorobenzyl)-1,2,3,4,6,8,12,12a-octahydro-1,4-methanodipyrido[1,2-a:1′,2′-d]pyrazine-9-carboxamide] |  |  |  | 3.73 |  |  | 0.16 |  |  |  |  |  | 3.3 | 0.783 | 17900 | 0 |  | 
O=C(NCc1c(F)cc(F)cc1F)c1cn2c(c(O)c1=O)C(=O)N1[C@H](C2)[C@H]2C[C@@H]1C(F)(F)C2 [Compound 83, (1S,4R,12aS)-3,3-difluoro-7-hydroxy-6,8-dioxo-N-(2,4,6-trifluorobenzyl)-1,2,3,4,6,8,12,12a-octahydro-1,4-methanodipyrido[1,2-a:1′,2′-d]pyrazine-9-carboxamide] |  |  |  | 10 |  |  | 0.38 |  |  |  |  |  | 2.4 | 2.68 | 27500 | 1 |  | 
O=C(NCc1ccc(F)cc1F)c1cn2c(c(O)c1=O)C(=O)N1[C@@H]3CC[C@@H](C3)O[C@H]1C2 [Compound 3, (2S,5R,13aS)-N-(2,4-difluorobenzyl)-8-hydroxy-7,9-dioxo-2,3,4,5,7,9,13,13a-octahydro-2,5-methanopyrido[1′,2′:4,5]pyrazino[2,1-b][1,3]oxazepine-10-carboxamide] |  |  |  | 0.25 |  |  | 0.23 |  |  | 9.2 | 1.2 | 18.7 | 4.9 | 0.783 | 38400 | 7.5 |  | 
O=C(NCc1ccc(F)cc1F)c1cn2c(c(O)c1=O)C(=O)N1[C@H]3CC[C@H](C3)[C@@H]1C2 [Compound 47, (1R,4S,12aR)-N-(2,4-difluorobenzyl)-7-hydroxy-6,8-dioxo-1,2,3,4,6,8,12,12a-octahydro-1,4-methanodipyrido[1,2-a:1′,2′-d]pyrazine-9-carboxamide] | 12.6 | 20.4 | 2.8 | 6.2 | 0.233 | 7.4 |  |  | 11 |  |  |  |  |  | 11300 |  |  | 0.1
O=C(NCc1c(F)cc(F)cc1F)c1cn2c(c(O)c1=O)C(=O)N1[C@H]3CC[C@H](C3)[C@@H]1C2 [Compound 41, (1R,4S,12aR)-7-hydroxy-6,8-dioxo-N-(2,4,6-trifluorobenzyl)-1,2,3,4,6,8,12,12a-octahydro-1,4-methanodipyrido[1,2-a:1′,2′-d]pyrazine-9-carboxamide] |  |  |  |  |  |  | 0.11 |  |  | 16.3 | 2.4 | 10.7 | 7.5 | 0.25 | 15700 | 11.5 | 2.82 | 
O=C(NCc1c(F)cc(F)cc1F)c1cn2c(c(O)c1=O)C(=O)N1[C@@H]3C[C@@H](C[C@H]3F)[C@@H]1C2 [Compound 82, (1S,3R,4R,12aR)-3-fluoro-7-hydroxy-6,8-dioxo-N-(2,4,6-trifluorobenzyl)-1,2,3,4,6,8,12,12a-octahydro-1,4-methanodipyrido[1,2-a:1′,2′-d]pyrazine-9-carboxamide] |  |  |  |  |  |  |  |  |  |  |  |  |  |  | 30400 | 1 | 10 | 
